{
  "source": "patent US20150105252A1",
  "about": "“SUBSTITUTED PYRAZOLES AS HERBICIDES” (E I DU PONT DE NEMOURS AND COMPANY, priority 2013, published 2015)",
  "key": {"pigweed [1]": {"test_system": "pigweed", "assay": "Test A postemergence", "type": "in vivo, Amaranthus retroflexus", "in_short": "(§1)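 Injury readout: eye-scored versus untreated controls, 0 to 100. Exposure period: ~10 days, greenhouse. Application: soil-directed spray over sown seed (pre) or spray on seedlings 2–10 cm tall with one or two leaves (post), compound carried in non-phytotoxic solvent including surfactant.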"}, "crabgrass, large [2]": {"test_system": "crabgrass, large", "assay": "Test A preemergence", "type": "in vivo, Digitaria sanguinalis", "details": "preemergence", "in_short": "as §1"}, "pigweed [3]": {"test_system": "pigweed", "assay": "Test A preemergence", "type": "in vivo, Amaranthus retroflexus", "details": "preemergence", "in_short": "as §1"}, "sedge, umbrella": {"test_system": "sedge, umbrella", "assay": "Test B flood", "type": "in vivo, Cyperus difformis", "details": "250 g ai/ha, visual rating on 0 to 100 scale (0 no effect, 100 complete control), 13 to 15 days", "in_short": "(§2)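 Paddy-water application: seedlings at 2-leaf stage, flood depth 3 cm maintained for the test duration. Evaluation after 13–15 days in the greenhouse by eye relative to controls; 0–100 scale.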"}, "foxtail, giant [4]": {"test_system": "foxtail, giant", "assay": "Test A preemergence", "type": "in vivo, Setaria faberii", "details": "preemergence", "in_short": "as §1"}, "corn [5]": {"test_system": "corn", "assay": "Test A postemergence", "type": "in vivo, Zea mays", "in_short": "as §1"}, "wheat [6]": {"test_system": "wheat", "assay": "Test A preemergence", "type": "in vivo, Triticum aestivum", "details": "preemergence", "in_short": "as §1"}, "wheat [7]": {"test_system": "wheat", "assay": "Test A postemergence", "type": "in vivo, Triticum aestivum", "in_short": "as §1"}, "ducksalad": {"test_system": "ducksalad", "assay": "Test B flood", "type": "in vivo, Heteranthera limosa", "details": "250 g ai/ha, visual rating on 0 to 100 scale (0 no effect, 100 complete control), 13 to 15 days", "in_short": "as §2"}, "barnyardgrass [8]": {"test_system": "barnyardgrass", "assay": "Test B flood", "type": "in vivo, Echinochloa crus-galli", "details": "250 g ai/ha, visual rating on 0 to 100 scale (0 no effect, 100 complete control), 13 to 15 days", "in_short": "as §2"}, "velvetleaf [9]": {"test_system": "velvetleaf", "assay": "Test A preemergence", "type": "in vivo, Abutilon theophrasti", "details": "preemergence", "in_short": "as §1"}, "velvetleaf [10]": {"test_system": "velvetleaf", "assay": "Test A postemergence", "type": "in vivo, Abutilon theophrasti", "in_short": "as §1"}, "barnyardgrass [11]": {"test_system": "barnyardgrass", "assay": "Test A preemergence", "type": "in vivo, Echinochloa crus-galli", "details": "preemergence", "in_short": "as §1"}, "foxtail, giant [12]": {"test_system": "foxtail, giant", "assay": "Test A postemergence", "type": "in vivo, Setaria faberii", "in_short": "as §1"}, "crabgrass, large [13]": {"test_system": "crabgrass, large", "assay": "Test A postemergence", "type": "in vivo, Digitaria sanguinalis", "in_short": "as §1"}, "barnyardgrass [14]": {"test_system": "barnyardgrass", "assay": "Test A postemergence", "type": "in vivo, Echinochloa crus-galli", "in_short": "as §1"}, "morningglory [15]": {"test_system": "morningglory", "assay": "Test A preemergence", "type": "in vivo, Ipomoea spp.", "details": "preemergence", "in_short": "as §1"}, "rice": {"test_system": "rice", "assay": "Test B flood", "type": "in vivo, Oryza sativa", "details": "250 g ai/ha, visual rating on 0 to 100 scale (0 no effect, 100 complete control), 13 to 15 days", "in_short": "as §2"}, "morningglory [16]": {"test_system": "morningglory", "assay": "Test A postemergence", "type": "in vivo, Ipomoea spp.", "in_short": "as §1"}, "corn [17]": {"test_system": "corn", "assay": "Test A preemergence", "type": "in vivo, Zea mays", "details": "preemergence", "in_short": "as §1"}, "[18]": {"details": "Postemergence, 500 g ai/ha, 0 to 100 scale (0 no effect, 100 complete control)"}, "[19]": {"details": "postemergence, 125 g ai/ha, about 10 days, visual rating on 0 to 100 scale (0 no effect, 100 complete control)"}, "[20]": {"details": "125 g ai/ha, visual injury, 0 to 100 scale, approx. 10 days"}, "[21]": {"details": "500 g ai/ha, visual injury after approx. 10 days, 0 to 100 scale (0 no effect, 100 complete control)"}, "[22]": {"details": "125 g ai/ha, visual injury approx. 10 days after treatment"}},
  "data": [
    {"compound": "CCONC(=O)c1cc(CC)n(Cc2cc(C(F)(F)F)nn2CC)n1", "note": "[Compound 121]", "values": [
      {"measurement": "Pigweed plant response rating", "setting": "pigweed [1]; [18]", "value": 100},
      {"measurement": "Pigweed plant response rating", "setting": "pigweed [1]; [19]", "value": 90},
      {"measurement": "Crabgrass, Large plant response rating", "setting": "crabgrass, large [2]; [20]", "value": 90},
      {"measurement": "Crabgrass, Large plant response rating", "setting": "crabgrass, large [2]; [21]", "value": 100},
      {"measurement": "Pigweed plant response rating", "setting": "pigweed [3]; [20]", "value": 100},
      {"measurement": "Pigweed plant response rating", "setting": "pigweed [3]; [21]", "value": 100},
      {"measurement": "Plant response rating, Sedge, Umbrella", "setting": "sedge, umbrella", "value": 75},
      {"measurement": "Foxtail, Giant plant response rating", "setting": "foxtail, giant [4]; [20]", "value": 60},
      {"measurement": "Foxtail, Giant plant response rating", "setting": "foxtail, giant [4]; [21]", "value": 80},
      {"measurement": "Corn plant response rating", "setting": "corn [5]; [18]", "value": 70},
      {"measurement": "Corn plant response rating", "setting": "corn [5]; [19]", "value": 40},
      {"measurement": "Wheat plant response rating", "setting": "wheat [6]; [20]", "value": 10},
      {"measurement": "Wheat plant response rating", "setting": "wheat [6]; [21]", "value": 80},
      {"measurement": "Wheat plant response rating", "setting": "wheat [7]; [18]", "value": 60},
      {"measurement": "Wheat plant response rating", "setting": "wheat [7]; [19]", "value": 0},
      {"measurement": "Plant response rating, Ducksalad", "setting": "ducksalad", "value": 75},
      {"measurement": "Plant response rating, Barnyardgrass", "setting": "barnyardgrass [8]", "value": 15},
      {"measurement": "Velvetleaf plant response rating", "setting": "velvetleaf [9]; [20]", "value": 20},
      {"measurement": "Velvetleaf plant response rating", "setting": "velvetleaf [9]; [21]", "value": 100},
      {"measurement": "Velvetleaf plant response rating", "setting": "velvetleaf [10]; [18]", "value": 100},
      {"measurement": "Velvetleaf plant response rating", "setting": "velvetleaf [10]; [19]", "value": 60},
      {"measurement": "Barnyardgrass plant response rating", "setting": "barnyardgrass [11]; [20]", "value": 70},
      {"measurement": "Barnyardgrass plant response rating", "setting": "barnyardgrass [11]; [21]", "value": 100},
      {"measurement": "Foxtail, Giant plant response rating", "setting": "foxtail, giant [12]; [18]", "value": 80},
      {"measurement": "Foxtail, Giant plant response rating", "setting": "foxtail, giant [12]; [19]", "value": 50},
      {"measurement": "Crabgrass, Large plant response rating", "setting": "crabgrass, large [13]; [18]", "value": 90},
      {"measurement": "Crabgrass, Large plant response rating", "setting": "crabgrass, large [13]; [19]", "value": 70},
      {"measurement": "Barnyardgrass plant response rating", "setting": "barnyardgrass [14]; [18]", "value": 90},
      {"measurement": "Barnyardgrass plant response rating", "setting": "barnyardgrass [14]; [19]", "value": 90},
      {"measurement": "Morningglory plant response rating", "setting": "morningglory [15]; [20]", "value": 100},
      {"measurement": "Morningglory plant response rating", "setting": "morningglory [15]; [21]", "value": 100},
      {"measurement": "Plant response rating, Rice", "setting": "rice", "value": 20},
      {"measurement": "Morningglory plant response rating", "setting": "morningglory [16]; [18]", "value": 100},
      {"measurement": "Morningglory plant response rating", "setting": "morningglory [16]; [19]", "value": 90},
      {"measurement": "Corn plant response rating", "setting": "corn [17]; [20]", "value": 30},
      {"measurement": "Corn plant response rating", "setting": "corn [17]; [21]", "value": 90}
    ]},
    {"compound": "CCc1cc(C(=O)NCC(F)(F)F)nn1Cc1nnc(C(F)(F)F)o1", "note": "[Compound 146]", "values": [
      {"measurement": "Pigweed plant response rating", "setting": "pigweed [1]; [18]", "value": 90},
      {"measurement": "Pigweed plant response rating", "setting": "pigweed [1]; [19]", "value": 60},
      {"measurement": "Crabgrass, Large plant response rating (0 to 100 scale)", "setting": "crabgrass, large [2]; [22]", "value": 80},
      {"measurement": "Crabgrass, Large plant response rating", "setting": "crabgrass, large [2]; [21]", "value": 100},
      {"measurement": "Pigweed plant response rating (0 to 100 scale)", "setting": "pigweed [3]; [22]", "value": 100},
      {"measurement": "Pigweed plant response rating", "setting": "pigweed [3]; [21]", "value": 100},
      {"measurement": "Plant response rating, Sedge, Umbrella", "setting": "sedge, umbrella", "value": 0},
      {"measurement": "Foxtail, Giant plant response rating (0 to 100 scale)", "setting": "foxtail, giant [4]; [22]", "value": 10},
      {"measurement": "Foxtail, Giant plant response rating", "setting": "foxtail, giant [4]; [21]", "value": 90},
      {"measurement": "Corn plant response rating", "setting": "corn [5]; [18]", "value": 0},
      {"measurement": "Corn plant response rating", "setting": "corn [5]; [19]", "value": 0},
      {"measurement": "Wheat plant response rating (0 to 100 scale)", "setting": "wheat [6]; [22]", "value": 0},
      {"measurement": "Wheat plant response rating", "setting": "wheat [6]; [21]", "value": 10},
      {"measurement": "Wheat plant response rating", "setting": "wheat [7]; [18]", "value": 0},
      {"measurement": "Wheat plant response rating", "setting": "wheat [7]; [19]", "value": 0},
      {"measurement": "Plant response rating, Ducksalad", "setting": "ducksalad", "value": 0},
      {"measurement": "Plant response rating, Barnyardgrass", "setting": "barnyardgrass [8]", "value": 0},
      {"measurement": "Velvetleaf plant response rating (0 to 100 scale)", "setting": "velvetleaf [9]; [22]", "value": 10},
      {"measurement": "Velvetleaf plant response rating", "setting": "velvetleaf [9]; [21]", "value": 60},
      {"measurement": "Velvetleaf plant response rating", "setting": "velvetleaf [10]; [18]", "value": 20},
      {"measurement": "Velvetleaf plant response rating", "setting": "velvetleaf [10]; [19]", "value": 10},
      {"measurement": "Barnyardgrass plant response rating", "setting": "barnyardgrass [11]; [20]", "value": 0},
      {"measurement": "Barnyardgrass plant response rating", "setting": "barnyardgrass [11]; [21]", "value": 90},
      {"measurement": "Foxtail, Giant plant response rating", "setting": "foxtail, giant [12]; [18]", "value": 20},
      {"measurement": "Foxtail, Giant plant response rating", "setting": "foxtail, giant [12]; [19]", "value": 0},
      {"measurement": "Crabgrass, Large plant response rating", "setting": "crabgrass, large [13]; [18]", "value": 80},
      {"measurement": "Crabgrass, Large plant response rating", "setting": "crabgrass, large [13]; [19]", "value": 10},
      {"measurement": "Barnyardgrass plant response rating", "setting": "barnyardgrass [14]; [18]", "value": 10},
      {"measurement": "Barnyardgrass plant response rating", "setting": "barnyardgrass [14]; [19]", "value": 0},
      {"measurement": "Morningglory plant response rating (0 to 100 scale)", "setting": "morningglory [15]; [22]", "value": 20},
      {"measurement": "Morningglory plant response rating", "setting": "morningglory [15]; [21]", "value": 100},
      {"measurement": "Plant response rating, Rice", "setting": "rice", "value": 0},
      {"measurement": "Morningglory plant response rating", "setting": "morningglory [16]; [18]", "value": 80},
      {"measurement": "Morningglory plant response rating", "setting": "morningglory [16]; [19]", "value": 20},
      {"measurement": "Corn plant response rating (0 to 100 scale)", "setting": "corn [17]; [22]", "value": 0}
    ]}
  ]
}
